The values that follow come from patent US5185360A, “Dihydroindenoindole compounds and methods for using the same” (University of Bath, priority 1989, dated 1993).

For one assay, the system named is rat hepatocytes. Nature of the assay: Protection against cytotoxic effects of MNNG in hepatocytes. The class given is cell-based, rat (male Sprague-Dawley). The following applies: Hepatocyte, concentration of compound required to extend by 1 hour the time needed for MNNG to kill 50% of the viable cells, 0.5 mM MNNG. The text has this:
(§1) The most important feature of the compounds of the invention is their efficacy as free-radical scavengers or antioxidants. An assay system measuring the concentration of the compounds of formulas (IA) and (IB) required to inhibit lipid peroxidation by 50% (IC50) was used. Other assays described below are the red blood cell fragility test used for measuring membrane stabilisation by indenoindoles. (Table 2), and protection by indenoindoles against cytotoxicity of N-methyl-N'-nitro-N-nitrosoguanidine (MNNG) in rat hepatocytes (Table 3). MNNG is a highly cytotoxic agent, the mechanism of action of which may involve a radical-mediated membrane destabilization.
The protective effects of indenoindoles on MNNG-induced cytotoxicity was assayed with rat hepatocytes. Hepatocytes were prepared from male Sprague-Dawley rats by collagenase treatment as originally described by Zahlten and Stratman (Zahlten, R. N. and Stratman, F. W., Arch. Biochem. Biophys. 163, 600 (1988)), as modified by Reitman et al. (Reitman, F. A. Shertzer, H. G. and Berger, M. L., Biochem. Pharmacol. 37, 3183 (1988)). In order to improve viability, cells were centrifuged through 0.508g/ml Percoll (Pharmacia AB, Uppsala, Sweden) in 137 mM NaCl, 8.1 mM Na2 HPO4 and 1.5 mM KH2 PO4 (pH 7.4). Putative protecting agents were added to the cells as solutions in DMSO, with the final concentration of DMSO never exceeding 5 μl/ml of cell suspension. MNNG was added to a concentration of 0.5 mM as a solution in ethanol, giving a final concentration of ethanol of 1%; ethanol alone was by itself without effect. Viability was determined as the percentage of cells that excluded 0.2% trypan blue. Values are the concentration of compound required to extend by 1 hour, the time needed for MNNG to kill 50% of the viable cells.

Another assay has as its system lipid peroxidation. The settings on record: Fd Chem. Toxicol. 26, 517 (1988); cited from earlier work.
The next assay has as its system red blood cells. As to the kind of experiment: Membrane stabilization in red blood cells (red blood cell fragility test). Type of assay: cell-based, rat. The following applies: linear regression slope: percentage protection against osmolysis per μM protecting agent; pH 7.4.
From the text: as §1
The membrane stabilization effect of indenoindoles was assayed by the red blood cell fragility test. Rats were anesthetized with 65 mg phenobarbital per kg body weight by i.p. injection. Blood samples were removed into a heparinized syringe from the left ventricle and diluted 20-fold with buffer containing 140 mM NaCl, 10 mM sodium citrate and 5 mM glucose (pH 7.4) at 0° C. Diluted blood was kept on ice. A 0.75 ml aliquot of blood was added to a 4 ml cuvette containing 10 μl of the antioxidant dissolved in DMSO vehicle. After I min of gentle swirling, 0.75 ml of 0.9 NaCl or H2 O were added to the cuvette by forceful pipetting, and the absorbance at 656 nm was recorded with a Beckman DU-70 spectrophotometer. When H2 O was added in the absence of a stabilizing agent, absorbance decreased within 15 sec to 0.8. Addition of NaCl instead of H2 O gave a time-independent absorbance of 2.2. In the presence of increasing concentrations of stabilizing chemicals, the absorbance decrease observed after the addition of water was diminished. The % protection from osmolysis was obtained from the equation [[(2.2-0.8)- A]/(2.2-0.8)]×100%, where A=2.2 minus the absorbance decrease when water is added in the presence of a known concentration of chemical. The % protection is then plotted against several concentrations of the chemical being treated. The red blood cell fragility protective index value (RBC-PIV) is the linear regression slope of this plot, expressed as the percentage protection against osmolysis per μM protecting agent.

In the next assay the test system is mouse liver microsomes. The following applies: NADPH-fortified mouse liver microsomes, initiated with CCl4; FASEB J. 2, A 407 (1988); cited from earlier work.
In assay [1] the test system is lipid peroxidation of soy bean phospholipids. Nature of the assay: Ascorbate/Fe^2+-dependent lipid peroxidation. The class given is biochemical. The following applies: inhibition of ascorbate/Fe^2+-dependent lipid peroxidation by 50%; pH 7.4, room temperature, 30 min.
From the text: as §1
For the ferrous/ascorbate lipid peroxidation system, 6.25 ml of 0.1 M potassium phosphate buffer (KPi), pH 7.4, was added to 12.5 mg dried soy bean phospholipids. After flushing with argon for 2 min, the suspension was sealed with five layers of Parafilm and sonicated until the suspension was translucent. The final reaction mixture was composed of 200 μg/ml phospholipid, 10 μM FeNH4 (SO4)2 or Fe(NH4)2 (SO4)2, and 100 μM ascorbic acid in 0.1 M KPi (pH 7.4), and the antioxidant to be tested in acetone or DMSO. The volume of vehicle never exceeded 1% of the total volume. The reaction was initiated by the addition of ascorbic acid plus iron. The reaction was continued at room temperature in a shaking water bath for 30 min and then stopped by the addition of […] of 0.5 M butylated hydroxytoluene in DMSO. The above procedure and the subsequent determination of 2-thibarbituric acid-reactive material is described in: Shertzer, H. G. et al, Biochem. Pharmacol. 37, 333 (1988).

The compound `c1ccc2c(c1)Cc1c-2[nH]c2ccccc12` [DHII, 5,10-Dihydroindeno[1,2-b]indole] returned a 50% inhibitory concentration (IC50) in the assay with rat hepatocytes of 3.1 µM. The results for the “inhibition of lipid peroxidation” value in the assay on lipid peroxidation and in the assay on mouse liver microsomes were “potent inhibitor of lipid peroxidation” and “inhibiting lipid peroxidation”, respectively. Besides, the “RBC-PIV (red blood cell fragility protective index value)” value in the assay with red blood cells is on record as 0.49 %/μM. This compound also returned a pIC50 in assay [1] of 5.8.
`COc1ccc2[nH]c3c(c2c1)Cc1ccccc1-3` [8-Methoxy-DHII, 5,10-Dihydro-8-methoxyindeno[1,2-b]indole]: the negative logarithm of the IC50 (pIC50) in assay [1] stood at 6.2.
On the same count and under the same terms, the value for `COc1ccc2[nH]c3c(c2c1)-c1ccccc1C3` [9-Methoxy-iso-DHII, 5,6-Dihydro-9-methoxyindeno[2,1-b]indole] was 6.4; that for `Fc1ccc2[nH]c3c(c2c1)Cc1ccccc1-3` [8-Fluoro-DHII, 5,10-Dihydro-8-fluoroindeno[1,2-b]indole] was 5.6.
On to `c1ccc2c(c1)Cc1[nH]c3ccccc3c1-2` [iso-DHII, 5,6-Dihydroindeno[2,1-b]indole], for which the concentration for half-maximal inhibition (IC50) in the assay with rat hepatocytes is 3.4 µM. Besides, in the assay on red blood cells, the “RBC-PIV (red blood cell fragility protective index value)” value is listed as 0.50 %/μM. In addition, in the assay with mouse liver microsomes, the “inhibition of lipid peroxidation” value is reported as “inhibiting lipid peroxidation”. Further, the negative-log IC50 (pIC50) in assay [1] stood at 5.8.
`Clc1cccc2c3c([nH]c12)-c1ccccc1C3` [6-Chloro-DHII, 5,10-Dihydro-6-chloroindeno[1,2-b]indole]: the negative logarithm of the IC50 (pIC50) in assay [1] amounted to 5.2.
As for `Cc1ccc2[nH]c3c(c2c1)Cc1ccccc1-3` [8-Methyl-DHII, 5,10-Dihydro-8-methylindeno[1,2-b]indole], in assay [1], the pIC50 is 5.7.
Turning to `CC1(C)c2ccccc2-c2[nH]c3ccccc3c21` [10,10-Dimethyl-DHII, 5,10-Dihydro-10,10-dimethylindeno[1,2-b]indole], in the assay on red blood cells, the “RBC-PIV (red blood cell fragility protective index value)” value is on record as 0.48 %/μM. Besides, the pIC50 in assay [1] came to 6.1.
Regarding `Cc1cc(C)c2[nH]c3c(c2c1)Cc1ccccc1-3` [6,8-Dimethyl-DHII, 5,10-Dihydro-6,8-dimethylindeno[1,2-b]indole], the pIC50 in assay [1] was 6.1.
Turning to `Cc1c(C)c2c(c(C)c1O)CCC(C)(CCCC(C)CCCC(C)CCCC(C)C)O2` (stereo not drawn) [α-Tocopherol (Vitamin E), α-Tocopherol, reference compound], the “RBC-PIV (red blood cell fragility protective index value)” value in the assay on red blood cells is recorded as 0.10 %/μM. The pIC50 in assay [1] was 5.0.
Turning to `CCN(CC)c1ccc2c(c1)Cc1c-2[nH]c2ccccc12` [2-Diethylamino-DHII, 5,10-Dihydro-2-(N,N-diethylamino)indeno[1,2-b]indole], the negative-log IC50 (pIC50) in assay [1] was 7.4.
`CC1c2ccccc2-c2[nH]c3ccccc3c21` (centres unmarked) [10-Methyl-DHII, 5,10-Dihydro-10-methylindeno[1,2-b]indole] came in with a negative logarithm of the IC50 (pIC50) in assay [1] of 5.7.
The compound `Cn1c2c(c3ccccc31)Cc1ccccc1-2` [5-Methyl-DHII, 5,10-Dihydro-5-methylindeno[1,2-b]indole] gave a concentration for half-maximal inhibition (IC50) in the assay on rat hepatocytes of 6 µM. The “RBC-PIV (red blood cell fragility protective index value)” value with red blood cells is 0.74 %/μM. The compound also yielded a pIC50 in assay [1] of 5.1.
`CC(C)c1ccc2[nH]c3c(c2c1)Cc1ccccc1-3` [8-Isopropyl-DHII, 5,10-Dihydro-8-iso-propylindeno[1,2-b]indole] yielded a negative logarithm of the IC50 (pIC50) in assay [1] of 5.6.
Take `CCNc1ccc2c(c1)Cc1c-2[nH]c2ccccc12` [2-Ethylamino-DHII, 5,10-Dihydro-2-(N-ethylamino)indeno[1,2-b] indole]: in assay [1], the pIC50 was 7.9.

By IC50 is commonly meant the concentration at which inhibition is half-maximal. What is called pIC50 is −log10 of the IC50, conventionally taken in molar units.
